Results from ChEMBL document CHEMBL3751705, “Synthesis and antituberculosis activity of indole-pyridine derived hydrazides, hydrazide-hydrazones, and thiosemicarbazones” (Bioorg Med Chem Lett, 2016).
Values after ≈ are worked out from the molar mass of the structure shown. Active and inactive are the calls of the source. No cut-off for these calls is given here.

Key:
[1] = tested on: Mycobacterium tuberculosis; assay: Antituberculosis activity against isoniazid-sensitive Mycobacterium tuberculosis H37Rv by microdilution method; type: functional
[2] = Cytotoxicity against C57BL/6 mouse peritoneal macrophages assessed as cell viability by lactate dehydrogenase release assay; type: cell-based; conditions: C57BL/6, Peritoneal macrophage cell
[3] = Selectivity index, ratio of IC50 for C57BL/6 mouse peritoneal macrophages to MIC for Mycobacterium tuberculosis H37Rv

SMILES: NC(=S)N/N=C/c1c(C(=O)O)[nH]c2ccccc12
- MIC [1]: > 10 µg/mL

SMILES: CC(=O)n1cc(NNC(=O)c2ccc[n+]([O-])c2)c2ccccc21
- MIC [1]: 2 µg/mL (≈ 6.45 µM)
- IC50 [2]: 17 µg/mL (≈ 54.8 µM)

SMILES: CCOC(=O)c1[nH]c2ccc(C)cc2c1/C=N\NC(=O)c1ccncc1
- MIC [1]: 0.05 µg/mL (≈ 0.143 µM)
- IC50 [2]: 15 µg/mL (≈ 42.8 µM)
- Selectivity Index [3]: 300

SMILES: O=C(N/N=C\c1c[nH]c2ccccc12)c1cc[n+]([O-])cc1
- MIC [1]: 1 µg/mL (≈ 3.57 µM)
- IC50 [2]: 30 µg/mL (≈ 107 µM)
- Selectivity Index [3]: 30

SMILES: CCOC(=O)c1[nH]c2ccc(Br)cc2c1CNNC(=O)c1ccncc1
- MIC [1]: 10 µg/mL (≈ 24 µM)

SMILES: NNC(=O)c1ccc[n+]([O-])c1
- MIC [1]: > 10 µg/mL

SMILES: CC(=O)N1C/C(=N\NC(N)=S)c2ccccc21
- MIC [1]: > 10 µg/mL

SMILES: NNC(=O)c1cc[n+]([O-])cc1
- MIC [1]: 5.2 µg/mL (≈ 34 µM)
- IC50 [2]: 60 µg/mL (≈ 392 µM)
- Selectivity Index [3]: 11.5

SMILES: NNC(=O)c1ccncc1 [ISONIAZID]
- MIC [1]: 0.06 µg/mL (≈ 0.438 µM)
- IC50 [2]: > 100 µg/mL
- Selectivity Index [3]: >1666

SMILES: Cc1ccc2[nH]c(C(=O)O)c(/C=N/NC(N)=S)c2c1
- MIC [1]: > 10 µg/mL

SMILES: CCOC(=O)c1[nH]c2ccccc2c1/C=N\NC(=O)c1cc[n+]([O-])cc1
- MIC [1]: 2 µg/mL (≈ 5.68 µM)
- IC50 [2]: 18 µg/mL (≈ 51.1 µM)
- Selectivity Index [3]: 9

SMILES: CCOC(=O)c1[nH]c2ccc(Cl)cc2c1CNNC(=O)c1ccncc1
- MIC [1]: 0.2 µg/mL (≈ 0.536 µM)

SMILES: CCOC(=O)c1[nH]c2ccc(Cl)cc2c1/C=N\NC(=O)c1ccncc1
- MIC [1]: 0.1 µg/mL (≈ 0.27 µM)

SMILES: O=C(N/N=C\c1c[nH]c2ccccc12)c1ccncc1
- MIC [1]: 0.1 µg/mL (≈ 0.378 µM)
- IC50 [2]: 40 µg/mL (≈ 151 µM)
- Selectivity Index [3]: 400

SMILES: CC(=O)n1cc(NNC(=O)c2cccnc2)c2ccccc21
- MIC [1]: 20 µg/mL (≈ 68 µM)

SMILES: NC(=S)N/N=C/c1c(C(=O)O)[nH]c2ccc(Cl)cc12
- MIC [1]: 10 µg/mL (≈ 33.7 µM)

SMILES: CCOC(=O)c1[nH]c2ccccc2c1/C=N\NC(=O)c1ccncc1
- MIC [1]: 0.15 µg/mL (≈ 0.446 µM)
- IC50 [2]: 16 µg/mL (≈ 47.6 µM)
- Selectivity Index [3]: 106.6

SMILES: NNC(=O)c1cccnc1 [NICOTINIC ACID HYDRAZIDE]
- MIC [1]: 5 µg/mL (≈ 36.5 µM)

SMILES: CC(=O)n1cc(NNC(=O)c2ccncc2)c2ccccc21
- MIC [1]: 0.2 µg/mL (≈ 0.68 µM)
- IC50 [2]: 50 µg/mL (≈ 170 µM)
- Selectivity Index [3]: 250

SMILES: CCOC(=O)c1[nH]c2ccccc2c1CN(NC(=O)c1ccncc1)C(=O)Nc1ccc(Cl)cc1
- MIC [1]: inactive

SMILES: CCOC(=O)c1[nH]c2ccccc2c1CNNC(=O)c1ccncc1
- MIC [1]: 0.2 µg/mL (≈ 0.591 µM)

SMILES: CC(=O)n1cc(N(NC(=O)c2ccncc2)C(=O)Nc2ccc(Cl)cc2)c2ccccc21
- MIC [1]: inactive

SMILES: CC(=O)n1cc(NNC(=O)c2cc[n+]([O-])cc2)c2ccccc21
- MIC [1]: 2 µg/mL (≈ 6.45 µM)

SMILES: CCOC(=O)c1[nH]c2ccc(C)cc2c1/C=N/NC(N)=S
- MIC [1]: 2 µg/mL (≈ 6.57 µM)

SMILES: CCOC(=O)c1[nH]c2ccccc2c1CN(NC(=O)c1ccncc1)C(=O)c1ccncc1
- MIC [1]: inactive

SMILES: CCOC(=O)c1[nH]c2ccccc2c1CNNC(=O)c1cc[n+]([O-])cc1
- MIC [1]: 2 µg/mL (≈ 5.64 µM)
- IC50 [2]: 16 µg/mL (≈ 45.2 µM)
- Selectivity Index [3]: 8

SMILES: Cc1ccc2[nH]c(C(=O)O)c(/C=N\NC(=O)c3ccncc3)c2c1
- MIC [1]: 0.1 µg/mL (≈ 0.31 µM)
- IC50 [2]: 25 µg/mL (≈ 77.6 µM)
- Selectivity Index [3]: 250

SMILES: COc1ccc2[nH]c(C(=O)O)c(/C=N/NC(N)=S)c2c1
- MIC [1]: > 10 µg/mL

SMILES: CCOC(=O)c1[nH]c2ccc(OC)cc2c1/C=N/NC(N)=S
- MIC [1]: > 10 µg/mL

SMILES: O=C(NNCc1c[nH]c2ccccc12)c1ccncc1
- MIC [1]: 0.1 µg/mL (≈ 0.376 µM)
- IC50 [2]: 15 µg/mL (≈ 56.3 µM)
- Selectivity Index [3]: 150

SMILES: CCOC(=O)c1[nH]c2ccc(C)cc2c1CNNC(=O)c1ccncc1
- MIC [1]: 0.2 µg/mL (≈ 0.568 µM)

SMILES: CCOC(=O)c1[nH]c2ccccc2c1CNNC(=O)C1CCNCC1.CS(=O)(=O)O
- MIC [1]: 20 µg/mL
